Assay results taken from patent US10851064B2, “ACSS2 inhibitors and methods of use thereof” (METABOMED LTD., priority 2017, dated 2020).

Target: ACSS2 (Homo sapiens, UniProt Q9NR19)
Assay: biochemical
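Also: Cell-free human ACSS2 enzyme reaction with acetate, CoA and ATP, 90 min at 37 C, coupled to pyrophosphatase, phosphate release detected by Biomol Green absorbance at 620 nm.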

Chain of ACSS2 (Q9NR19 whole entry): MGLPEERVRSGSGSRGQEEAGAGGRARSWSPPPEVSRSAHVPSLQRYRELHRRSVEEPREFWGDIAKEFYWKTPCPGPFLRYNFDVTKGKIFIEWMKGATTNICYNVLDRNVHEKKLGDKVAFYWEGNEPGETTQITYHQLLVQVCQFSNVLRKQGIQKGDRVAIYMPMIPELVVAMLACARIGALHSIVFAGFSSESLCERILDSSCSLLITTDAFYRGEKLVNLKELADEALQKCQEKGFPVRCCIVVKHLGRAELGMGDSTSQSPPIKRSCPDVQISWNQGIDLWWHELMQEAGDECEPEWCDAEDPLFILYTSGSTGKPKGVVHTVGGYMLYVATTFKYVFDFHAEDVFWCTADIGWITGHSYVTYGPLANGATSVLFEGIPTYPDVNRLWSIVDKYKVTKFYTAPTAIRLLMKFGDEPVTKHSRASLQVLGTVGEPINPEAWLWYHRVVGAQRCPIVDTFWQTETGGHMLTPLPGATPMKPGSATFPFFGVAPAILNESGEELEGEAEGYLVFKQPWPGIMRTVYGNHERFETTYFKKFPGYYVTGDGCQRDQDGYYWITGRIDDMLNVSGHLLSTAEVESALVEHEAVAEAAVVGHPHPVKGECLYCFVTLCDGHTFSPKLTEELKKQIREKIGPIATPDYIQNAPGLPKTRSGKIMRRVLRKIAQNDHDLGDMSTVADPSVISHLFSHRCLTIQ

| SMILES | IC50 [nM] |
| --- | --- |
| CC1=NN(c2ccccc2)C(=O)C1C(=O)NC1CCNCC1 (stereo not drawn) [compound 121, 3-methyl-5-oxo-1-phenyl-N-(4-piperidyl)-4H-pyrazole-4-carboxamide] | 1000 to 100000 |
| CC1=NN(c2ccc(OC(F)F)cc2)C(=O)C1C(=O)N(C)c1cc(C)cc(Cl)c1 (stereo not drawn) [compound 393] | 100 to 1000 |
| CC(=O)c1cccc(NC(=O)C2C(=O)N(c3ccc(C(=O)O)cc3)N=C2C)c1 (stereo not drawn) [compound 120, 4-(4-((3-acetylphenyl)carbamoyl)-3-methyl-5-oxo-4,5-dihydro-1H-pyrazol-1-yl)benzoic acid] | 100 to 1000 |
| CCOC(=O)c1cccc(NC(=O)C2C(=O)N(c3ccccc3)N=C2C)c1 (stereo not drawn) [compound 113, Ethyl 3-(3-methyl-5-oxo-1-phenyl-4,5-dihydro-1H-pyrazole-4-carboxamido)benzoate] | 6 to 100 |
| COc1ccc(N2N=C(C)C(C(=O)Nc3cccc(C(C)(F)F)c3)C2=O)cc1-c1ccc[n+]([O-])c1 (stereo not drawn) [compound 417] | 100 to 1000 |
| CCC(F)(F)c1cccc(NC(=O)C2C(=O)N(c3ccc4cc[nH]c4c3)N=C2C)c1 (stereo not drawn) [compound 369] | 0.01 to 6 |
| COc1ccc(N2N=C(C)C(C(=O)Nc3cccc(C(C)(F)F)c3)C2=O)cc1-c1cc[n+]([O-])cc1 (stereo not drawn) [compound 345] | 100 to 1000 |
| CCc1ccsc1NC(=O)C1C(=O)N(c2ccccc2)N=C1C (stereo not drawn) [compound 288] | 100 to 1000 |
| CCC1=NN(c2ccccc2)C(=O)C1C(=O)Nc1cccc(CC)c1 (stereo not drawn) [compound 136, 3-ethyl-N-(3-ethylphenyl)-5-oxo-1-phenyl-4,5-dihydro-1H-pyrazole-4-carboxamide] | 1000 to 100000 |
| CC1=NN(c2ccc(OC(F)F)c(-c3cncnc3)c2)C(=O)C1C(=O)Nc1cccc(C(C)(F)F)c1 (stereo not drawn) [compound 449] | 0.01 to 6 |
| CC1=NN(c2ccccc2)C(=O)C1C(=O)Nc1cccc(-c2cncnc2)c1 (stereo not drawn) [compound 132, 3-methyl-5-oxo-1-phenyl-N-(3-(pyrimidin-5-yl)phenyl)-4,5-dihydro-1H-pyrazole-4-carboxamide] | 100 to 1000 |
| CCCc1cc(-c2cccnc2)cc(N2N=C(C)C(C(=O)Nc3cccc(C(C)(F)F)c3)C2=O)c1 (stereo not drawn) [compound 399] | 0.01 to 6 |
| CC1=NN(c2ccc(OC(C)C)cc2)C(=O)C1C(=O)Nc1cccc(C(C)(F)F)c1 (stereo not drawn) [compound 447] | 0.01 to 6 |
| N#Cc1ccc(OCCNC(=O)c2cccc(C(O)CO)c2)cc1 (stereo not drawn) [compound 179] | 1000 to 100000 |
| CC1=NN(c2cc(-c3ccccc3)cc(-c3ccccc3)c2)C(=O)C1C(=O)Nc1cccc(C(C)(F)F)c1 (stereo not drawn) [compound 401] | 6 to 100 |
| CC1=NN(c2ccccc2)C(=O)C1C(=O)Nc1ccc2c(c1)C(=O)OC2 (stereo not drawn) [compound 122, 3-methyl-5-oxo-N-(3-oxo-1,3-dihydroisobenzofuran-5-yl)-1-phenyl-4,5-dihydro-1H-pyrazole-4-carboxamide] | 1000 to 100000 |
| CC1=NN(c2ccccc2)C(=O)C1C(=O)Nc1cccc(CN(C)C)c1 (stereo not drawn) [compound 131, N-(3-((dimethylamino)methyl)phenyl)-3-methyl-5-oxo-1-phenyl-4,5-dihydro-1H-pyrazole-4-carboxamide] | 1000 to 100000 |
| CC1=NN(c2ccccc2)C(=O)C1C(=O)Nc1ccccc1 (stereo not drawn) [compound 182, 3-methyl-5-oxo-N,1-diphenyl-4,5-dihydro-1H-pyrazole-4-carboxamide] | 1000 to 100000 |
| CC1=NN(c2ccccc2)C(=O)C1C(=O)Nc1cccc(C)c1 (stereo not drawn) [compound 212, 3-methyl-5-oxo-1-phenyl-N-(m-tolyl)-4,5-dihydro-1H-pyrazole-4-carboxamide] | 1000 to 100000 |
| CCc1cccc(NC(=O)C2C(=O)N(c3ccc(NC(=O)N(C)C)cc3)N=C2C)c1 (stereo not drawn) [compound 155, 1-(4-(3,3-dimethylureido)phenyl)-N-(3-ethylphenyl)-3-methyl-5-oxo-4,5-dihydro-1H-pyrazole-4-carboxamide] | 100 to 1000 |
| CC1=NN(c2cccc(C(=O)O)c2)C(=O)C1C(=O)Nc1cccc(-c2ncc[nH]2)c1 (stereo not drawn) [compound 172] | 6 to 100 |
